# What was measured:
# Format in all cases: cell-based, Human
# [1] = test system: H3.3-FKBP12^F36V HeLa cells; experiment: Quantitative acetylproteomics of H3.3-FKBP12^F36V HeLa cells
# Method: Sample preparation: Frozen cell pellets were thawed on ice and lysed in a buffer containing 50 mM Tris-HCl (pH 7.5), 150 mM NaCl, 1 mM EDTA, 1% NP-40, 0.1% sodium deoxycholate, 5 mM sodium butyrate, 10 mM nicotinamide and 1X Pierce™ protease inhibitor cocktail. Cells were sonicated to ensure complete lysis, mixed with 5 M NaCl at a ratio of 1:10 with sample volume and incubated on ice for 15 min to release chromatin-bound proteins. Cell lysates were then sonicated again to shear genomic DNA. Cellular debris was cleared by centrifugation at 16,000 g for 20 min at 4° C., protein concentration was determined using a Pierce™ BCA assay and ˜10 mg of protein was aliquoted for acetyl-proteomic analysis. Proteins were denatured with 8 M urea in 50 mM HEPES, reduced with 5 mM dithiothreitol for 30 min at 56° C., then alkylated with 5 mM iodoacetamide for 20 min in the dark at RT. Following alkylation, proteins were precipitated using chloroform-methanol as previously described, and protein pellets were dried at 56° C. for 15 min. Proteins pellets were resuspended in 1 M urea in 50 mM HEPES and digested in a two-step process with LysC and trypsin as previously described. Digested peptides were desalted using Phenomenex Strata-X polymeric reverse phase extraction cartridges using the following protocol. Cartridges were conditioned with 1 mL 100% acetonitrile, 1 mL 80% acetonitrile/0.5% AA, and 1 mL 0.1% TFA. Peptides were then loaded on to the cartridge at a reduced flow rate and desalted with 5 mL 0.1% TFA followed by 1 mL 0.5% AA. Desalted peptides were eluted using 1 mL 40% acetonitrile/0.5% AA followed by 1 mL 80% acetonitrile/0.5% AA and lyophilized. Digested peptides were quantified using the Pierce™ Quantitative Colorimetric Peptide Assay and […] was aliquoted from each for total protein analysis while the remaining peptide was lyophilized and retained for acetyl-peptide enrichment.
# Acetyl-peptide Enrichment: Acetyl-peptides were enriched using the PTMScan® Acetyl-Lysine Motif [Ac-K] Kit according to manufacturer instructions. […]
# TP53 target genes = experiment: RNA-seq analysis of H1299 wt cells; details: 3 μM AceTAG-1, FIG. 7F
# p21 promoter = experiment: ChIP-qPCR of FKBP12^F36V-p53 binding to p21 promoter; details: AceTAG-1 treatment vs DMSO, FIG. 7G
# From the text: The p53/p21 ^CIP/WAF1 pathway is one of the most well-studied pathways related to p53 acetylation ^[8a, 14]. It has been reported that acetylation of p53 at lysine 373 and 382 play an important in activating transcription and translation of the p21^CIP/WAF1 gene^[15], which inhibits cell cycle progression during G1 and G2 phases ^[16]. However, it is still unknown whether these are the only two sites necessary for activation of downstream pathway. Moreover, the molecular mechanism as to how AceTAG-1 mediates p21 induction is currently uncertain as there are multiple hypotheses of how p53 acetylation affects transcriptional activity. […] We first tested whether AceTAG-mediated p53 acetylation increases its DNA binding to p21 promoter by ChIP-qPCR. The cells were incubated with AceTAG-1 and FKBP12^F36V-HA-p53 was immunoprecipitated, where DNA binding to the protein was purified for qPCR analysis. Among five p21 DNA sequences, binding of FKBP12^F36V-p53 to four previously reported p53 binding sites on p21 promoter (Mujtaba et al., Molecular Cell 13, 251-263, 2004) were increased with AceTAG-1 treatment.
smiles,measurement,setting,value
"CC[C@H](C(=O)N1CCCC[C@H]1C(=O)O[C@H](CCc1ccc(OC)c(OC)c1)c1cccc(OCC(=O)NCCOCCOCCC(=O)NCCOc2ccc(CCc3nc4cc(-c5c(C)noc5C)ccc4n3CCN3CCOCC3)cc2)c1)c1cc(OC)c(OC)c(OC)c1 [AceTAG-1, (R)-3-(3,4-dimethoxyphenyl)-1-(3-((15-(4-(2-(5-(3,5-dimethylisoxazol-4-yl)-1-(2-morpholinoethyl)-1H-benzo[d]imidazol-2-yl)ethyl)phenoxy)-2,12-dioxo-6,9-dioxa-3,13-diazapentadecyl)oxy)phenyl)propyl (S)-1-((S)-2-(3,4,5-trimethoxyphenyl)butanoyl)piperidine-2-carboxylate]",changes in acetylation of detected proteins relative to DMSO,"[1]; 600 nM AceTAG, FIG. 5D",no substantial changes in acetylation of any detected protein
same,"endogenous histone lysine acetylation, including H3.3","[1]; AceTAG treatment, FIG. 9C",no substantial changes
same,changes of TP53 target genes in H1299 wt cells,TP53 target genes,minimal changes
same,binding at the non p53 binding sites within the C-terminus of p21 gene,p21 promoter,no significant increase
same,binding of FKBP12^F36V-p53 to four p53 binding sites on p21 promoter,p21 promoter,increased

# Source: patent publication US20240238426A1, “PROTEIN ACYLATION MODULATION BY HETEROBIFUNCTIONAL MOLECULES” (THE SCRIPPS RESEARCH INSTITUTE, priority 2021, published 2024)
